The text below walks through data of patent US5849259A, “3-,8-substituted deuteroporphyrin derivatives, pharmaceutical agents containing the latter and process for their production” (priority 1992, dated 1998).

Data set [1] is described as follows: Tissue concentrations by ICP-AES after 0.1 mmol/kg i.v. in nude mice with subcutaneously implanted colon cancers (HT29, WiDr). The data set is classed as in vivo, nude mice (Balb/c nu/nu). On the procedure: a) 9 nude mice (Balb/c nu/nu) with subcutaneously implanted colon cancers (HT29, WiDr) were each administered by i.v. 0.1 mmol/kg of the mesoporphyrin derivative of example 1b (10 mmol/l dissolved in bidistilled water, pH 7.2, 37° C.). After 0.5, 3 and 24 hours the animals were killed and dissected. The tissue concentrations were determined after corresponding working-up (HNO3 conc.) by ICP-AES and calculated for % of the administered dose per gram of tissue net weight.
e) 9 nude mice (Balb/c nu/nu) with subcutaneously implanted colon cancers (HT29 and WiDr) were each administered by i.v. 0.1 mmol/kg of the deuteroporphyrin derivative of the compound according to example 1c (10 mmol/l dissolved in bidistilled water, pH 7.2, 37° C.). After 0.5, 3 and 24 hours, the animals were killed and dissected. The tissue concentrations were determined after corresponding working-up (HNO3 conc.) by ICP-AES and calculated for % of the administered dose per gram of tissue net weight. Moreover, tissue relaxation times T1 and T2 were determined (Bruker minispec pc 120).
9 nude mice (Balb/c nu/nu) with subcutaneously implanted colon cancers (HT29, WiDr) were each administered by i.v. 0.1 mmol/kg of the mesoporphyrin derivative of example 8e (10 mmol/l dissolved in bidistilled water, pH 7.2, 37° C.). After 0.5, 3 and 24 hours, the animals were killed and dissected. The tissue concentrations were determined after corresponding working-up (HNO3 conc.) by ICP-AES and calculated for % of the administered dose per gram of tissue net weight.
9 nude mice (Balb/c nu/nu) with subcutaneously implanted colon cancers (HT29, WiDr) were each administered by i.v. 0.1. mmol/kg of the mesoporphyrin derivative of example 16f (10 mmol/l dissolved in bidistilled water, pH 7.2, 37° C.). After 0.5 and 3 hours the animals were killed and dissected. The tissue concentrations were determined after corresponding working-up (HNO3 conc.) by ICP-AES and calculated for % of the administered dose per gram of tissue net weight.
9 nude mice (Balb/c nu/nu) with subcutaneously implanted colon cancers (HT29, WiDr) were each administered by i.v. 0.1 mmol/kg of the mesoporphyrin derivative of example 18d (10 mmol/l dissolved in bidistilled water, pH 7.2, 37° C.). After 0.5 and 3 hours, the animals were killed and dissected. The tissue concentrations were determined after corresponding working-up (HNO3 conc.) by ICP-AES and calculated for % of the administered dose per gram of tissue net weight.
9 nude mice (Balb/c nu/nu) with subcutaneously implanted colon cancers (HT29, WiDr) were each administered by i.v. 0.1 mmol/kg of the mesoporphyrin derivative of example 19e (10 mmol/l dissolved in bidistilled water, pH 7.2, 37° C.). After 0.5, 3 and 24 hours, the animals were killed and dissected. The tissue concentrations were determined after corresponding working-up (HNO3 conc.) by ICP-AES and calculated for % of the administered dose per gram of tissue net weight.

Experiment in data set [2]: as above
The data set is classed as in vivo, nude mice (Balb/c nu/nu). The following applies: 2 hours p.i. (so in the source).

“Zinc(II)-{N,N'-bis[11-carboxylato-2-oxo-4,7,10-tris-(carboxylatomethyl)-1,4,7,10-tetraazaundecyl]-3,8-bis-(2-(naphth-1-yl)-ethyl)-deuteroporphyrin-IX-13,17-diamide}, digadolinium complex, disodium salt [Example 18d]”: in data set [1] (0.5 hour p.i.), the “tissue concentration, HT29 tumor” value was 1.48 ± 0.28 % of the administered dose per gram of tissue net weight; the “tissue concentration, WiDr tumor” value is listed as 1.94 ± 0.78 % of the administered dose per gram of tissue net weight; the “tissue concentration, blood” value is reported as 24.44 ± 2.32 % of the administered dose per gram of tissue net weight; the “tissue concentration, intestine” value is 4.93 ± 0.90 % of the administered dose per gram of tissue net weight. For the same substance, in data set [1] (0.5 hour p.i.), the “tissue concentration, kidneys” value is given as 11.74 ± 2.38 % of the administered dose per gram of tissue net weight; the “tissue concentration, lung” value is recorded as 17.70 ± 2.50 % of the administered dose per gram of tissue net weight; the “tissue concentration, muscle” value is 0.89 ± 0.17 % of the administered dose per gram of tissue net weight; the “tissue concentration, rest of body” value is recorded as 2.38 ± 0.27 % of the administered dose per gram of tissue net weight. Besides, in data set [1] (0.5 hour p.i.), the “tissue concentration, skin” value is on record as 3.71 ± 0.52 % of the administered dose per gram of tissue net weight and the “tissue concentration, spleen” value is recorded as 7.52 ± 0.40 % of the administered dose per gram of tissue net weight. Besides, in data set [1] (3 hours p.i.), the “tissue concentration, HT29 tumor” value was 3.53 ± 0.52 % of the administered dose per gram of tissue net weight; the “tissue concentration, WiDr tumor” value is given as 4.50 ± 0.98 % of the administered dose per gram of tissue net weight; the “tissue concentration, blood” value is listed as 16.95 ± 1.53 % of the administered dose per gram of tissue net weight; the “tissue concentration, intestine” value was 2.31 ± 0.28 % of the administered dose per gram of tissue net weight. For the same substance, in data set [1] (3 hours p.i.), the “tissue concentration, kidneys” value is recorded as 20.41 ± 1.88 % of the administered dose per gram of tissue net weight; the “tissue concentration, liver” value was 16.89 ± 1.15 % of the administered dose per gram of tissue net weight; the “tissue concentration, lung” value is reported as 17.56 ± 3.34 % of the administered dose per gram of tissue net weight; the “tissue concentration, muscle” value is given as 1.04 ± 0.06 % of the administered dose per gram of tissue net weight. In data set [1] (3 hours p.i.), the “tissue concentration, rest of body” value is recorded as 2.43 ± 0.13 % of the administered dose per gram of tissue net weight; the “tissue concentration, skin” value was 4.46 ± 0.53 % of the administered dose per gram of tissue net weight; the “tissue concentration, spleen” value is listed as 10.82 ± 0.87 % of the administered dose per gram of tissue net weight. The “tissue concentration, liver” value in data set [2] is reported as ~17 % of the administered dose per.
